In patent US10227331B2 (priority 2015, dated 2019):

Assays:
VIM-1 = VIM-1 (Pseudomonas aeruginosa (strain ATCC 15692 / DSM 22644 / CIP 104116 / JCM 14847 / LMG 12228 / 1C / PRS 101 / PAO1), UniProt A0A0F7KYQ8); assay: biochemical; conditions: CCF2-FA substrate, 2 hours at 25° C
Procedure: Enzyme Activity: Determination of IC50
The Class B enzyme activities were measured in the presence of the test inhibitor in a fluorescence assay against a commercially available substrate consisting of a cephalosporin core linking 7-hydroxycoumarin to fluorescein (CCF2-FA). […] In a 384-well microplate, the test inhibitor was incubated with the metallo-β-lactamase enzyme and the substrate for 2 hours at 25° C. […] The IC50 value was determined from semi-logarithmic plots of enzyme inhibition versus inhibitor concentration, with a curve generated using a 4-parameter fit.

[1] = tested on: P. aeruginosa expressing IMP-1, efflux− (MB9799); assay: Efflux: concentration of MBL inhibitor which restores susceptibility to imipenem; type: cell-based, Pseudomonas aeruginosa; conditions: imipenem at 2 μg/mL, in the presence of a class A, C, D serine β-lactamase inhibitor closely related to relebactam
From the text: (§1) The strain background is Pseudomonas aeruginosa PAO1.

[2] = tested on: P. aeruginosa expressing IMP-1, efflux+ (MB9798); type: cell-based, Pseudomonas aeruginosa; conditions: for P. aeruginosa expressing IMP-1, efflux+ (MB9798) MITC95: imipenem at 2 μg/mL, in the presence of a class A, C, D serine β-lactamase inhibitor closely related to relebactam; for Efflux ratio: ratio MITC95 PA_9798/MITC95 PA_9799
From the text: as §1

[3] = tested on: Serratia marcescens expressing IMP-1 (CL5741); type: cell-based; conditions: with imipenem 1 μg/ml, 95% inhibition of bacterial growth; for Serratia marcescens MITC95: IMP-1 (CL5741)
Procedure: (§2) Antibiotic Potentiation Activity: Determination of Synergistic Concentration
(§3) The bacterial strains tested included the clinical strains Escherichia coli expressing NDM-1 (CLB30005, CLB30016), Serratia marcescens expressing IMP-1 (CL5741), and Klebsiella pneumoniae expressing VIM-1 (IHMA599644). Inhibitor activity was measured in the presence and absence of imipenem in a 384-well microplate.
(§4) The clinical strains CLB30016, CL5741 and IHMA599644 were grown on trypticase soy agar containing 5% sheep's blood. The bacteria on agar plates were incubated at 35° C. with humidity overnight. The following day, individual colonies from each clinical strain were picked and resuspended in 5 ml saline to attain an OD600 of […], for CLB30016, CL5741 and IHMA599644, respectively. These were further diluted 1:100 into 1.1×CAMHB and used to inoculate the test wells as described below.
(§5) Imipenem in 10 mM 3-(N-morpholino)propanesulfonic acid (MOPS, pH 7) was stored in single use aliquots at −80° C. […] On the day of the assay, 4 μl of antibiotic was added to 45 ul of bacteria followed by 1 μl of test compound and mixed by pipetting and with an orbital shaker. The concentration of antibiotic used in the assay was 1 μg/ml. Microplates were covered and incubated at 35° C. for 22 hours to 24 hours. At the end of the incubation, absorbance was determined using a spectrophotometer.
(§6) For example, in general, the compounds of Examples 1-379 were determined to restore susceptibility to imipenem for one or more of the test organisms at concentrations of 100 μM or less.

[4] = tested on: Klebsiella pneumoniae expressing VIM-1 (IHMA599644); type: cell-based; conditions: with imipenem 1 μg/ml, 95% inhibition of bacterial growth; for Klebsiella pneumoniae MITC95: VIM-1 (IHMA599644)
Procedure: as §2, §3, §4, §5, §6

[5] = tested on: Escherichia coli expressing NDM-1 (CLB30005, CLB30016); type: cell-based; conditions: with imipenem 1 μg/ml, 95% inhibition of bacterial growth; for Escherichia coli MITC95: NDM-1 (CLB30016)
Procedure: as §2, §3, §4, §5, §6

| SMILES | IC50 (VIM-1) | P. aeruginosa expressing IMP-1, efflux− (MB9799) MITC95 [1] | P. aeruginosa expressing IMP-1, efflux+ (MB9798) MITC95 [2] | Efflux ratio [2] | Serratia marcescens expressing IMP-1 (CL5741) MITC95 [3] | Klebsiella pneumoniae expressing VIM-1 (IHMA599644) MITC95 [4] | Escherichia coli expressing NDM-1 (CLB30016) MITC95 [5] | Serratia marcescens MITC95 [3] | Klebsiella pneumoniae MITC95 [4] | Escherichia coli MITC95 [5] |
| --- | --- | --- | --- | --- | --- | --- | --- | --- | --- | --- |
| Nc1nc2cc(-c3ccc([S+]([O-])C4CNC4)c(S(N)(=O)=O)c3-c3nn[nH]n3)ccc2[nH]1 (stereo not shown) [Example 11, 3-(2-amino-1H-benzo[d]imidazol-5-yl)-6-(azetidin-3-ylsulfinyl)-2-(2H-tetrazol-5-yl)benzenesulfonamide] | 1.86 nM | 0.3906 µM | 3.125 µM | 8.00 | 0.7813 µM | 0.3906 µM | 0.3906 µM |  |  |  |
| Nc1nc2ccc(-c3ccc(S(=O)(=O)C4CCNCC4)c(S(N)(=O)=O)c3-c3nn[nH]n3)cc2[nH]1 [Example 41, 3-(2-amino-3H-benzo[d]imidazol-5-yl)-6-(piperidin-4-ylsulfonyl)-2-(2H-tetrazol-5-yl)benzenesulfonamide] | 0.171 nM | 0.7813 µM | 3.125 µM | 4.00 | 1.563 µM | 1.563 µM | 1.563 µM |  |  |  |
| Nc1cnccc1-c1ccc(S(=O)(=O)C2CNC2)c(S(N)(=O)=O)c1-c1nnn[nH]1.O=C(O)C(F)(F)F [Example 105, 3-((4-(3-aminopyridin-4-yl)-2-sulfamoyl-3-(1H-tetrazol-5-yl)phenyl)sulfonyl)azetidin-1-ium 2,2,2-trifluoroacetate] | 0.759 nM | 1.563 µM | 3.125 µM | 2.00 | 1.563 µM | 3.125 µM | 3.125 µM |  |  |  |
| CNc1ncc(-c2ccc(S(=O)(=O)C3CNC3)c(S(N)(=O)=O)c2-c2nnn[nH]2)cn1.O=C(O)C(F)(F)F [Example 106, 3-((4-(2-(methylamino)pyrimidin-5-yl)-2-sulfamoyl-3-(1H-tetrazol-5-yl)phenyl)sulfonyl)azetidin-1-ium 2,2,2-trifluoroacetate] | 1.59 nM | 1.563 µM | 6.25 µM | 4.00 | 3.125 µM | 6.25 µM | 12.5 µM |  |  |  |
| NCc1cncc(-c2ccc(S(=O)(=O)C3CNC3)c(S(N)(=O)=O)c2-c2nnn[nH]2)c1.O=C(O)C(F)(F)F [Example 107, 3-((4-(5-(aminomethyl)pyridin-3-yl)-2-sulfamoyl-3-(1H-tetrazol-5-yl)phenyl)sulfonyl)azetidin-1-ium 2,2,2-trifluoroacetate] | 28.3 nM | 3.125 µM | 12.5 µM | 4.00 | 6.25 µM | 3.125 µM | 1.563 µM |  |  |  |
| NS(=O)(=O)c1c(S(=O)(=O)C2CNC2)ccc(C2=CC3C=NNC3N=C2)c1-c1nnn[nH]1.O=C(O)C(F)(F)F (stereo not shown) [Example 108, 3-((4-(3a,7a-dihydro-1H-pyrazolo[3,4-b]pyridin-5-yl)-2-sulfamoyl-3-(1H-tetrazol-5-yl)phenyl)sulfonyl)azetidin-1-ium 2,2,2-trifluoroacetate] | 0.612 nM | 1.563 µM | 25 µM | 15.99 | 3.125 µM | 6.25 µM | 6.25 µM |  |  |  |
| NS(=O)(=O)c1c(S(=O)(=O)C2CNC2)ccc(-c2ccc(O)nc2)c1-c1nnn[nH]1.O=C(O)C(F)(F)F [Example 109, 3-((4-(6-hydroxypyridin-3-yl)-2-sulfamoyl-3-(1H-tetrazol-5-yl)phenyl)sulfonyl)azetidin-1-ium 2,2,2-trifluoroacetate] | 1.44 nM | 1.563 µM | 12.5 µM | 8.00 | 1.563 µM | 3.125 µM | 0.7813 µM |  |  |  |
| NS(=O)(=O)c1c(S(=O)(=O)C2CNC2)ccc(-c2ccc(CO)nc2)c1-c1nnn[nH]1.O=C(O)C(F)(F)F [Example 111, 3-((4-(6-(hydroxymethyl)pyridin-3-yl)-2-sulfamoyl-3-(1H-tetrazol-5-yl)phenyl)sulfonyl)azetidin-1-ium 2,2,2-trifluoroacetate] | 0.96 nM | 1.563 µM | 6.25 µM | 4.00 | 3.125 µM | 6.25 µM | 3.125 µM |  |  |  |
| NS(=O)(=O)c1c(S(=O)(=O)C2CNC2)ccc(-c2cccc3c2C(=O)NS3(=O)=O)c1-c1nn[nH]n1 [Example 249, 6-(Azetidin-3-ylsulfonyl)-3-(1,1-dioxido-3-oxo-2,3-dihydrobenzo[d]isothiazol-4-yl)-2-(2H-tetrazol-5-yl)benzenesulfonamide] | 0.322 nM | 6.25 µM | 12.5 µM | 2.00 |  |  |  | 6.25 µM | 25 µM | 6.25 µM |
| C[C@@H](CN)S(=O)(=O)c1ccc(-c2cccc3nc(N)[nH]c23)c(-c2nn[nH]n2)c1S(N)(=O)=O [Example 278, 3-(2-amino-3H-benzo[d]imidazol-4-yl)-6-((S)-1-aminopropan-2-ylsulfonyl)-2-(2H-tetrazol-5-yl)benzenesulfonamide] | 0.365 nM | 0.7813 µM | 1.563 µM | 2.00 |  |  |  | 0.7813 µM | 1.563 µM | 0.3906 µM |
| Nc1nc2cc(F)cc(-c3ccc(S(=O)(=O)C4CNC4)c(S(N)(=O)=O)c3-c3nnn[nH]3)c2[nH]1 [Example 296, 3-(2-amino-5-fluoro-1H-benzo[d]imidazol-7-yl)-6-(azetidin-3-ylsulfonyl)-2-(1H-tetrazol-5-yl)benzenesulfonamide] | 0.227 nM | 0.7813 µM | 0.7813 µM | 1.00 |  |  |  | 0.7813 µM | 1.172 µM | 0.5859 µM |
| Nc1nc2nccc(-c3ccc(S(=O)(=O)C4CNC4)c(S(N)(=O)=O)c3-c3nnn[nH]3)c2[nH]1 [Example 302] | 9.99 nM | 12.5 µM | 200 µM | 16.00 |  |  |  | 12.5 µM | 6.25 µM | 3.125 µM |
| NCCS(=O)(=O)c1ccc(-c2ccnc3nc(N)[nH]c23)c(-c2nnn[nH]2)c1S(N)(=O)=O [Example 303, 3-(2-amino-1H-imidazo[4,5-b]pyridin-7-yl)-6-((2-aminoethyl)sulfonyl)-2-(1H-tetrazol-5-yl)benzenesulfonamide] | 11.3 nM | 3.125 µM | 100 µM | 32.00 |  |  |  | 6.25 µM | 3.125 µM | 3.125 µM |
